Assays:
[1] = molecular target: T1, Human KIF18A (amino acid sequence 1-417) (Homo sapiens, UniProt Q8NI77); test: Enzyme activity detection experiment (ADP-Glo, KIF18A with tubulin and ATP); assay type: biochemical; settings: tubulin 60 μg/mL, ATP 25 μM, KIF18A protein 2.5 nM, 120 minutes at ambient temperature, ADP-Glo chemiluminescence
T1 construct: purchased Viva Biotech (Shanghai) Ltd
Method: Materials: Human KIF18A (amino acid sequence 1-417) was obtained from Viva Biotech (Shanghai) Ltd., and the ADP-Glo™ protein kinase kit was acquired from Promega, USA. Tubulin was sourced from Cytoskeleton, USA, while a 384-well assay plate and the Envision multifunctional microplate reader were obtained from PerkinElmer, USA.
Enzyme activity detection: The compound powder in DMSO was firstly dissolved to prepare a 10 mM stock solution. Next, gradient dilutions were prepared in the microplate to achieve final concentrations of […]. Sequentially, 2.5 μL of tubulin (60 μg/mL), the compound, ATP (25 μM), and KIF18A protein (2.5 nM) were added to each well, and the reaction was incubated at ambient temperature for 120 minutes. After the reaction, 10 μL of ADP-Glo™ reagent was added to each well and incubated at ambient temperature for 30 minutes. Subsequently, 20 μL of detection reagent was added to each well and incubated for an additional 30 minutes in the dark. Finally, chemiluminescence detection was performed using the PerkinElmer Envision multifunctional microplate reader.

OVCAR3 cells = test: Cell proliferation activity test, OVCAR3 (CyQUANT Direct); assay type: cell-based; settings: Homo sapiens, OVCAR-3, 72 h, 3 days incubation, CyQUANT fluorescence detection, read-out: OVCAR-3 Cell Viability_IC50_nM
Method: Materials and Cells: OVCAR3 cells were purchased from Nanjing Cobioer Biosciences Co., Ltd. RPMI-1640 medium, fetal bovine serum, and the CyQUANT Direct Cell Proliferation Assay kit were purchased from Thermo Fisher Scientific, USA; 96-well cell culture plates were sourced from Corning, USA.
Cell Culture: Culture OVCAR3 cells with RPMI-1640 medium containing […] and incubate them in a […] incubator at 37° C. Only cells in the logarithmic growth phase can be used for the test.
Inoculate OVCAR3 cells into a 96-well cell culture plate at 90 μL per well and incubate overnight in a […] incubator at 37° C. Dissolve the compound powder in DMSO to prepare a stock solution of 10 mM. Then perform gradient dilution for the compounds in the microplate to achieve a final concentration of 0-10 μM. Add 10 μL of cell culture medium containing compounds to each well to make the final DMSO content 0.20%. Incubate the cell plates in a […] incubator at 37° C. for 3 days. Add 100 μL of CyQUANT detection reagent to each well, react at 37° C. for 60 min, and perform fluorescence detection using the PerkinElmer Envision.

HT29 cells = test: CyQuant cell proliferation activity test, HT29; assay type: cell-based; settings: Homo sapiens, HT-29, 72 h, HT29 2000 cells per well, 3 days incubation, initial concentration 3000 nM, IC50 by XLFIT, read-out: HT-29 Cell Viability_IC50_nM
Method: Materials and Cells: HT29 cells were purchased from Nanjing Cobioer Biosciences Co., Ltd.; RPM-1640 medium, fetal bovine serum, Trypsin-EDTA (0.25%), DMSO, 96-well plates, and CyQuant reagents were purchased from ThermoFisher (USA).
Cell Culture: Culture HT29 cells with RPMI-1640 containing 10% fetal bovine serum under the condition of 37° C. and 5% CO2. Only cells in the logarithmic growth phase can be used for the test.
Cell Proliferation Activity Test: Use the CyQuant reagent to detect the proliferation inhibitory activity of compounds on HT29 cells. Adjust the cell density and inoculate 100 μL per well into the 96-well plate (HT29 at 2000 cells per well), then incubate overnight under the condition of 37° C. and […]. Add compounds of various target concentrations (initial concentration of 3000 nM, 3-fold dilution, 9 concentration gradients), and make the DMSO content 0.20%. Incubate the cell plates at 37° C. and 5% CO2 for 3 days. Incubate with CyQuant reagent for 1 h, read the plate by Envision, and calculate IC50 using XLFIT.

T1 sequence (Q8NI77 1-417): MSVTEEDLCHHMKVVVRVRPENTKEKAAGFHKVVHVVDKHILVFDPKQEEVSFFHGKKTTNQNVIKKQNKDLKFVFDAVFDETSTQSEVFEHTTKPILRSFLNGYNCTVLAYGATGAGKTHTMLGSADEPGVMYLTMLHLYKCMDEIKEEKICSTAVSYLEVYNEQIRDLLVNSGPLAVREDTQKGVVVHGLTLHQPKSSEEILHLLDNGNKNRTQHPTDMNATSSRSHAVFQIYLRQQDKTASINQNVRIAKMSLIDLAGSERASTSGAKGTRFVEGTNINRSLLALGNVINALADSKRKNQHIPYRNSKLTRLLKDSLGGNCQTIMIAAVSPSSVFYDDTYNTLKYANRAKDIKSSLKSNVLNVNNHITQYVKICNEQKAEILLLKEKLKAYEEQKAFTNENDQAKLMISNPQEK
T1 sequence (Q2XVP4 whole entry partner): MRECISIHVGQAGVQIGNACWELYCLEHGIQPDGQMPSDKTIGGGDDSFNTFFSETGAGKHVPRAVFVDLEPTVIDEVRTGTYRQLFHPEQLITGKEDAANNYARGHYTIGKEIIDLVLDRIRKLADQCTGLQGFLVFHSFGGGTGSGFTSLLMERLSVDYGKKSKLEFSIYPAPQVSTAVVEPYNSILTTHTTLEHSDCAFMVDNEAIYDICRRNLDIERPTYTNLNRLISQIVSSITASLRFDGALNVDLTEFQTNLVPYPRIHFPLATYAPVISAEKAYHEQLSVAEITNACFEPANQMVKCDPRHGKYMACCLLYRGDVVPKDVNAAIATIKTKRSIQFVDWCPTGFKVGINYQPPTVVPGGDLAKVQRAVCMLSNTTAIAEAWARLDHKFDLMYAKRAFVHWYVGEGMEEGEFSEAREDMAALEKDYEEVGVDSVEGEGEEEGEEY
T1 sequence (P02554 whole entry partner): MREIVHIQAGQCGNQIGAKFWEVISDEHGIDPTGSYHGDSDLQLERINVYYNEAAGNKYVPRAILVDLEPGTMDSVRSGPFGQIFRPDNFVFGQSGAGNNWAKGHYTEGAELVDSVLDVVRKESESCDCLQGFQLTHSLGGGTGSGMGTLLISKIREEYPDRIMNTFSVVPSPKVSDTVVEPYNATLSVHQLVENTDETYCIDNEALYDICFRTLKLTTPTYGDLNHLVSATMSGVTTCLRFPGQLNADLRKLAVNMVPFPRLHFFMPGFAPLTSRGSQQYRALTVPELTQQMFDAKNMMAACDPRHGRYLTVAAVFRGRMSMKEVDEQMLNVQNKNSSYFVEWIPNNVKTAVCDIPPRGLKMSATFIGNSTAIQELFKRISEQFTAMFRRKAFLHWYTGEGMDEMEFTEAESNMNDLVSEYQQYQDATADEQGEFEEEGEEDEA

Structure (SMILES) | IC50 [1] | IC50 (OVCAR3 cells) | IC50 (HT29 cells)
Cc1cc(-c2cn(-c3ccc(NS(=O)(=O)C4(CO)CC4)cc3N3CCC4(CC3)CC4)nn2)nc(N2CCC(F)(F)CC2)n1 [Example 85, N-(3-{6-azaspiro[2.5]octan-6-yl}-4-{4-[2-(4,4-difluoropiperidin-1-yl)-6-methylpyrimidin-4-yl]-1H-1,2,3-triazol-1-yl}phenyl)-1-(hydroxymethyl)cyclopropane-1-sulfonamide] | 188 nM | 25 nM | 34 nM
Cc1cc(-c2cn(-c3ccc(NS(=O)(=O)C(C)(C)CO)cc3N3CCC4(CC3)CC4)nn2)nc(N2CCC(F)(F)CC2)n1 [Example 86, N-(3-{6-azaspiro[2.5]octan-6-yl}-4-{4-[2-(4,4-difluoropiperidin-1-yl)-6-methylpyrimidin-4-yl]-1H-1,2,3-triazol-1-yl}phenyl)-1-hydroxy-2-methylpropane-2-sulfonamide] | 162 nM | 22 nM | 21 nM
Cc1cc(-c2nnc(-c3ccc(NS(=O)(=O)CCO)cc3N3CCC4(CC3)CC4)o2)c(F)c(N2CCC(F)(F)CC2)n1 [Example 23, N-(4-(5-(2-(4,4-difluoropiperidin-1-yl)-3-fluoro-6-methylpyridin-4-yl)-1,3,4-oxadiazol-2-yl)-3-(6-azaspiro[2.5]octan-6-yl)phenyl)-2-hydroxyethane-1-sulfonamide] | 153 nM | 115 nM | 118 nM
COc1cc(-c2cn(-c3ccc(NS(=O)(=O)CCO)cc3N3CCC4(CC3)CC4)nn2)nc(N2[C@H](C)COC[C@@H]2C)n1 [Example 53, N-(4-(4-(2-((3S,5R)-3,5-dimethylmorpholino)-6-methoxypyrimidin-4-yl)-1H-1,2,3-triazol-1-yl)-3-(6-azaspiro[2.5]octan-6-yl)phenyl)-2-hydroxyethane-1-sulfonamide] | 296 nM | 35 nM | 47 nM
O=S(=O)(CCO)Nc1ccc(-n2cc(-c3cc4cccnc4c(N4CCC(F)(F)CC4)c3F)nn2)c(N2CCC3(CC2)CC3)c1 [Example 73, N-(3-{6-azaspiro[2.5]octan-6-yl}-4-{4-[8-(4,4-difluoropiperidin-1-yl)-7-fluoroquinolin-6-yl]-1H-1,2,3-triazol-1-yl}phenyl)-2-hydroxyethane-1-sulfonamide] | 271 nM | 34 nM | 63 nM
Cc1cc(-c2cn(-c3cnc(NS(=O)(=O)CCO)cc3N3CCC4(CC3)CC4)nn2)cc(N2CCC(F)(F)CC2)n1 [Example 68, N-(4-{6-azaspiro[2.5]octan-6-yl}-5-{4-[2-(4,4-difluoropiperidin-1-yl)-6-methylpyridin-4-yl]-1H-1,2,3-triazol-1-yl}pyridin-2-yl)-2-hydroxyethane-1-sulfonamide] | 112 nM | 159 nM | 250 nM
Cc1cc(-c2cn(-c3ccc(NS(=O)(=O)CCO)cc3N3CCC(=C(F)F)CC3)nn2)nc(N2CCC(F)(F)CC2)n1 [Example 88, N-{3-[4-(difluoromethylidene)piperidin-1-yl]-4-{4-[2-(4,4-difluoropiperidin-1-yl)-6-methylpyrimidin-4-yl]-1H-1,2,3-triazol-1-yl}phenyl}-2-hydroxyethane-1-sulfonamide] | 118 nM | 29 nM | 52 nM
Cc1cc(-n2cc(-c3ccc(NS(=O)(=O)[C@@H](C)CO)cc3N3CCC4(CC3)CC4)nn2)nc(N2CCC(F)(F)CC2)n1 [Example 93, (2S)—N-(3-{6-azaspiro[2.5]octan-6-yl}-4-{1-[2-(4,4-difluoropiperidin-1-yl)-6-methylpyrimidin-4-yl]-1H-1,2,3-triazol-4-yl}phenyl)-1-hydroxypropane-2-sulfonamide] | 315 nM | 85 nM | 83 nM
Cc1cc(N2CCC(F)(F)CC2)nc(-c2nnc(-c3ccc(NS(=O)(=O)CCO)cc3N3CCC4(CC3)CC4)o2)c1Cl [Example 26, N-(4-(5-(3-chloro-6-(4,4-difluoropiperidin-1-yl)-4-methylpyridin-2-yl)-1,3,4-oxadiazol-2-yl)-3-(6-azaspiro[2.5]octan-6-yl)phenyl)-2-hydroxyethane-1-sulfonamide] | 287 nM | 767 nM | 1270 nM
Cn1cc(-c2ccc(-c3nnc(-c4ccc(NS(=O)(=O)CCO)cc4N4CCC5(CC4)CC5)o3)nc2N2CCC(F)(F)CC2)cn1 [Example 31, N-(4-(5-(6-(4,4-difluoropiperidin-1-yl)-5-(1-methyl-1H-pyrazol-4-yl)pyridin-2-yl)-1,3,4-oxadiazol-2-yl)-3-(6-azaspiro[2.5]octan-6-yl)phenyl)-2-hydroxyethane-1-sulfonamide] | 161 nM | 16 nM | 11 nM
Cc1cc(-c2cn(-c3ccc(NS(=O)(=O)CCO)cc3N3CCC4(CC3)CC4)nn2)nc(N2C3COCC2C3)n1 [Example 49, N-(4-(4-(2-(3-oxa-6-azabicyclo[3.1.1]heptan-6-yl)-6-methylpyrimidin-4-yl)-1H-1,2,3-triazol-1-yl)-3-(6-azaspiro[2.5]octan-6-yl)phenyl)-2-hydroxyethane-1-sulfonamide] | 61 nM | 54 nM | 31 nM

Continued by falling IC50 [1], values first:

IC50 [1] | IC50 (OVCAR3 cells) | IC50 (HT29 cells) | Structure (SMILES)
102 nM | 1180 nM | > 3000 nM | Cc1cc(-c2noc(-c3ccc(NS(=O)(=O)CCO)cc3N3CCC4(CC3)CC4)n2)nc(N2CCC(F)(F)CC2)n1 [Example 7]
64 nM | 13 nM | 12 nM | Nc1cc2cc(-c3cn(-c4ccc(NS(=O)(=O)CCO)cc4N4CCC5(CC4)CC5)nn3)cc(N3CCC(F)(F)CC3)c2nn1 [Example 77, N-(4-(4-(3-amino-8-(4,4-difluoropiperidin-1-yl)cinnolin-6-yl)-1H-1,2,3-triazol-1-yl)-3-(6-azaspiro[2.5]octan-6-yl)phenyl)-2-hydroxyethane-1-sulfonamide]
56 nM | 12 nM | 15 nM | Cc1cc(-c2cn(-c3ccc(NS(=O)(=O)CCO)cc3N3CCC4(CC3)CC4)nn2)nc(N2CCC(F)(F)CC2)n1 [Example 34, N-(4-(4-(2-(4,4-difluoropiperidin-1-yl)-6-methylpyrimidin-4-yl)-1H-1,2,3-triazol-1-yl)-3-(6-azaspiro[2.5]octan-6-yl)phenyl)-2-hydroxyethanesulfonamide]
51 nM | 16 nM | 20 nM | Cc1cc(-c2nnc(-c3ccc(NS(=O)(=O)CCO)cc3N3CCC4(CC3)CC4)o2)cc(N2CCC(F)(F)CC2)n1 [Example 24, N-(4-(5-(2-(4,4-difluoropiperidin-1-yl)-6-methylpyridin-4-yl)-1,3,4-oxadiazol-2-yl)-3-(6-azaspiro[2.5]octan-6-yl)phenyl)-2-hydroxyethane-1-sulfonamide]
50 nM | 30 nM | 39 nM | Cc1cc(-c2cn(-c3ccc(NS(=O)(=O)CCO)cc3N3CCC4(CC3)CC4)nn2)nc(C2CCOCC2)n1 [Example 36, 2-hydroxy-N-(4-(4-(6-methyl-2-(tetrahydro-2H-pyran-4-yl)pyrimidin-4-yl)-1H-1,2,3-triazol-1-yl)-3-(6-azaspiro[2.5]octan-6-yl)phenyl)ethane-1-sulfonamide]
44 nM | 15 nM | 14 nM | Cc1cc(-c2cn(-c3ccc(NS(=O)(=O)CCO)cc3N3CCC4(CC3)CC4)nn2)nc(N2CCCCC2)n1 [Example 41, 2-hydroxy-N-(4-(4-(6-methyl-2-(piperidin-1-yl)pyrimidin-4-yl)-1H-1,2,3-triazol-1-yl)-3-(6-azaspiro[2.5]octan-6-yl)phenyl)ethanesulfonamide]

— patent publication US20250304551A1 (SHANGHAI APEIRON THERAPEUTICS COMPANY LIMITED, priority 2022, published 2025)
